Results reported in PMC13607727 (International Journal of Molecular Sciences, 2026).
Counter-ions that a name gives are not always drawn.

Columns and labels:
Type in all cases: cell-based, SARS-CoV-2; human
[1] = molecular target: Omicron (BA.5) S-RBD/hACE2 (Severe acute respiratory syndrome coronavirus 2, UniProt P0DTC2, D405N/E484A/F486V/G339D/K417N/L452R/N440K/N501Y/Q498R/R408S/S371F/S373P/S375F/S477N/T376A/T478K/Y505H)
2019-nCoV S-RBD/hACE2 = 2019-nCoV S-RBD/hACE2 (Severe acute respiratory syndrome coronavirus 2, UniProt P0DTC2)
[2] = molecular target: Delta (B.1.617.2) S-RBD/hACE2 (Severe acute respiratory syndrome coronavirus 2, UniProt P0DTC2, L452R/T478K)

Compound | Effect on S-RBD/hACE2 colocalisation [1] | Effect on S-RBD/hACE2 colocalisation (2019-nCoV S-RBD/hACE2) | Effect on S-RBD/hACE2 colocalisation [2]
CCCCCCCCC=CCCCCCCCC(=O)OCC(C[N+](C)(C)C)OC(=O)CCCCCCCC=CCCCCCCCC (stereo not drawn) [DOTAP, DOTAP chloride] | reduced colocalisation to all three S-RBD variants in a concentration-dependent manner | reduced colocalisation to all three S-RBD variants in a concentration-dependent manner | reduced colocalisation to all three S-RBD variants in a concentration-dependent manner
CC(OC(=O)OC1CCCCC1)OC(=O)C1=C(CSc2nnnn2CC[NH+](C)C)CSC2C(NC(=O)Cc3csc(N)n3)C(=O)N12 (stereo not drawn) [CTM-HCl, cefotiam hexetil hydrochloride] | showed similar effects against all tested strains | showed similar effects against all tested strains | showed similar effects against all tested strains
